Test system: E2F tumour cell line (E2F4 tumour cells)
Type: cell-based
Conditions: 24 hours; 33 μM peptide, 33 μM etoposide
Experimental: After 24 hours random regions of the culture dish were examined and the percentage of nonviable cells determined by counting cells with an abnormal morphology.
At 24 hours post treatment cellular morphology was noted and those with a rounded abnormal appearance were scored as dead.
Cells were cultured as above.

`COc1cc([C@@H]2c3cc4c(cc3[C@@H](O[C@@H]3O[C@@H]5CO[C@@H](C)O[C@H]5[C@H](O)[C@H]3O)[C@H]3COC(=O)[C@H]23)OCO4)cc(OC)c1O` [etoposide] was tested, and the “cell death (cells with rounded abnormal appearance scored as dead)” value was “approximately 15%”.

Source: patent US7160981B2, “Peptide antagonists of DP transcription factors” (Prolifix Limited, priority 1996, dated 2007)
